This note sets out measurements from patent US20250009742A1 (priority 2021, published 2025).

The subject of data set [1] is intracellular HBV DNA. The experiment in a line: Real-time PCR for intracellular HBV DNA in HepAD38 cells. The data set is classed as cell-based. The conditions noted are these: Hepatitis B virus, HePAD38, 65 h, 65 hours treatment. On the technique in general: Real-time PCR tracks product formation cycle by cycle.
Data set [2] in a line: Cell viability assay (EZ-Cytox), cytotoxicity. Conditions: human, HepAD38 cells; for viability at 65 h, 100 µM: read-out: Cytotoxicity % Livability (@100 μM). The data set is classed as cell-based. As to the method: HepAD38 cells were cultured for 2 days in Dulbecco's Modified Eagle's medium (Welgene, LM001-05) supplemented with 10% FBS without tetracycline. […] After 65 hours of treatment, viability was measured using EZ-Cytox cell viability assay kit (Daeil Lab Service) according to the manufacturer's instructions. The absorbance was measured at 450 nm using a spectrophotometer (Spark, Tecan).

Bounds are passed on as bounds.

Broadly, the IC50 is the concentration needed to halve the response being measured. A high value points to a need for much substance. By CC50 is commonly meant the concentration at which the toxic effect on the cells reaches its halfway point. For `COc1ccc(N(Cc2cc(C(F)F)[nH]n2)C(=O)Nc2ccc(F)c(Cl)c2)cn1` [Example 72, 3-(3-chloro-4-fluorophenyl)-1-((5-(difluoromethyl)-1H-pyrazol-3-yl)methyl)-1-(6-methoxypyridin-3-yl)urea], the IC50 in data set [1] came to 48 nM. In data set [2], the CC50 at 65 h is more than 66600 nM and the viability at 65 h, 100 µM was 48.5%.
In the same order, the values of `N#Cc1cc(N(Cc2n[nH]c3c2CCOC3)C(=O)Nc2ccc(F)c(Cl)c2)ccn1` [Example 128, 3-(3-chloro-4-fluorophenyl)-1-(2-cyanopyridin-4-yl)-1-((1,4,5,7-tetrahydropyrano[3,4-c]pyrazol-3-yl)methyl)urea] are 340 nM, more than 100000 nM and 65.9%.
The like results for `COc1ncc(N(Cc2cc(C(F)(F)F)[nH]n2)C(=O)Nc2ccnc(C#N)c2)cn1` [Example 146, 3-(2-cyanopyridin-4-yl)-1-(2-methoxypyrimidin-5-yl)-1-((5-(trifluoromethyl)-1H-pyrazol-3-yl)methyl)urea] were, in that order, 120 nM, more than 100000 nM and 112%.
In data set [1], `N#Cc1cc(N(Cc2n[nH]c3c2CCCO3)C(=O)Nc2ccc(F)c(Cl)c2)ccn1` [Example 122, 3-(3-chloro-4-fluorophenyl)-1-(2-cyanopyridin-4-yl)-1-((1,4,5,6-tetrahydropyrano[2,3-c]pyrazol-3-yl)methyl)urea] had a concentration for half-maximal inhibition (IC50) of 350 nM. This molecule also registered a CC50 at 65 h in data set [2] of more than 100000 nM.
The molecule `COc1ncc(N(Cc2n[nH]c(C(F)(F)F)c2CC(C)O)C(=O)Nc2ccc(F)c(Cl)c2)cn1` (centres unmarked) [Example 95, 3-(3-chloro-4-fluorophenyl)-1-((4-(2-hydroxypropyl)-5-(trifluoromethyl)-1H-pyrazol-3-yl)methyl)-1-(2-methoxypyrimidin-5-yl)urea] showed a half-maximal inhibitory concentration (IC50) in data set [1] of 830 nM. In addition, in data set [2], the midpoint of cytotoxicity, the CC50 at 65 h, lay at 62200 nM and the viability at 65 h, 100 µM stood at 29.9%.
In the same order, the values of `COc1cc(N(Cc2cc(C(F)F)[nH]n2)C(=O)Nc2ccc(F)c(Cl)c2)cnn1` [Example 99, 3-(3-chloro-4-fluorophenyl)-1-((5-(difluoromethyl)-1H-pyrazol-3-yl)methyl)-1-(6-methoxypyridazin-4-yl)urea] are 890 nM, more than 100000 nM and 83.4%.
The like results for `CC(C)(O)c1cc(N(Cc2n[nH]c3c2CCOC3)C(=O)Nc2ccc(F)c(Cl)c2)on1` [Example 115, 3-(3-chloro-4-fluorophenyl)-1-(3-(2-hydroxypropan-2-yl)isoxazol-5-yl)-1-((1,4,5,7-tetrahydropyrano[3,4-c]pyrazol-3-yl)methyl)urea] were, in that order, more than 1100 nM, more than 100000 nM and 84.1%.
In the same order, the values of `COc1ccc(N(Cc2cc(C(F)(F)F)[nH]n2)C(=O)Nc2ccc(F)c(F)c2)cn1` [Example 168, 3-(3,4-difluorophenyl)-1-(6-methoxypyridin-3-yl)-1-((5-(trifluoromethyl)-1H-pyrazol-3-yl)methyl)urea] are 73 nM, more than 100000 nM and 59.8%.
Turning to `O=C(Nc1ccc(F)c(Cl)c1)N(Cc1n[nH]c2c1CCCO2)c1ccon1` [Example 136, 3-(3-chloro-4-fluorophenyl)-1-(isoxazol-3-yl)-1-((1,4,5,6-tetrahydropyrano[2,3-c]pyrazol-3-yl)methyl)urea], the IC50 in data set [1] was 48 nM. Further, in data set [2], the CC50 at 65 h stood at 64000 nM and the viability at 65 h, 100 µM was 7.3%.
As for `COc1ncc(N(Cc2cc(C(F)(F)F)[nH]n2)C(=O)Nc2cc(F)c(F)cn2)cn1` [Example 172, 3-(4,5-difluoropyridin-2-yl)-1-(2-methoxypyrimidin-5-yl)-1-((5-(trifluoromethyl)-1H-pyrazol-3-yl)methyl)urea], half-maximal inhibition in data set [1] (IC50) was put at 240 nM. Further, in data set [2], the CC50 at 65 h was more than 100000 nM.
As for `COc1cc(N(Cc2n[nH]c3c2COC3)C(=O)Nc2ccc(F)c(Cl)c2)ccn1` [Example 70, 3-(3-chloro-4-fluorophenyl)-1-((4,6-dihydro-1H-furo[3,4-c]pyrazol-3-yl)methyl)-1-(2-methoxypyridin-4-yl)urea], in data set [1], the IC50 came to 9 nM. Moreover, in data set [2], the CC50 at 65 h was more than 100000 nM and the viability at 65 h, 100 µM came to 98%.
In the same order, the values of `N#Cc1cncc(N(Cc2n[nH]c3c2COCC3)C(=O)Nc2ccc(F)c(Cl)c2)c1` [Example 129, 3-(3-chloro-4-fluorophenyl)-1-(5-cyanopyridin-3-yl)-1-((1,4,6,7-tetrahydropyrano[4,3-c]pyrazol-3-yl)methyl)urea] are 60 nM, more than 100000 nM and 93.1%.
As to `COc1ncc(N(Cc2cc(C(F)(F)F)[nH]n2)C(=O)Nc2cc(F)ccn2)cn1` [Example 187, 3-(4-fluoropyridin-2-yl)-1-(2-methoxypyrimidin-5-yl)-1-((5-(trifluoromethyl)-1H-pyrazol-3-yl)methyl)urea], the IC50 in data set [1] was more than 1100 nM. In data set [2], this molecule registered a CC50 at 65 h of more than 100000 nM.
Take `COc1ncc(N(Cc2cc(C(F)(F)F)[nH]n2)C(=O)Nc2cc(N(C)C)c(F)c(Cl)n2)cn1` [Example 138, 3-(6-chloro-4-(dimethylamino)-5-fluoropyridin-2-yl)-1-(2-methoxypyrimidin-5-yl)-1-((5-(trifluoromethyl)-1H-pyrazol-3-yl)methyl)urea]: the IC50 in data set [1] is more than 1100 nM. For the same molecule, in data set [2], the CC50 at 65 h was more than 100000 nM and the viability at 65 h, 100 µM is 71.9%.
As to `CC(C)(O)c1cc(N(Cc2n[nH]c3c2CCOC3)C(=O)Nc2ccc(F)c(Cl)c2)ccn1` [Example 112, 3-(3-chloro-4-fluorophenyl)-1-(2-(2-hydroxypropan-2-yl)pyridin-4-yl)-1-((1,4,5,7-tetrahydropyrano[3,4-c]pyrazol-3-yl)methyl)urea], the IC50 in data set [1] was more than 1100 nM. In data set [2], this molecule returned a half-maximal cytotoxic concentration (CC50) at 65 h of more than 66000 nM.
Consider `COc1ncc(N(Cc2cc(C(F)(F)F)[nH]n2)C(=O)Nc2cc(F)c(F)c(C#N)n2)cn1` [Example 151, 3-(6-cyano-4,5-difluoropyridin-2-yl)-1-(2-methoxypyrimidin-5-yl)-1-((5-(trifluoromethyl)-1H-pyrazol-3-yl)methyl)urea], for which, in data set [1], the IC50 is more than 1100 nM. For the same molecule, in data set [2], the CC50 at 65 h was more than 100000 nM and the viability at 65 h, 100 µM is 87.4%.
In the same order, the values of `COc1ncc(N(Cc2cc(C(F)(F)F)[nH]n2)C(=O)Nc2cc(F)c(F)c(Cl)n2)cn1` [Example 13, 3-(6-chloro-4,5-difluoropyridin-2-yl)-1-(2-methoxypyrimidin-5-yl)-1-((5-(trifluoromethyl)-1H-pyrazol-3-yl)methyl)urea] are 210 nM, more than 100000 nM and 100%.
On to `COc1ncc(N(Cc2cc(C(F)(F)F)[nH]n2)C(=O)Nc2ccc(C(F)F)c(F)c2)cn1` [Example 206, 3-(4-(difluoromethyl)-3-fluorophenyl)-1-(2-methoxypyrimidin-5-yl)-1-((5-(trifluoromethyl)-1H-pyrazol-3-yl)methyl)urea], for which half-maximal inhibition in data set [1] (IC50) was put at 180 nM. In data set [2], the CC50 at 65 h was more than 100000 nM and the viability at 65 h, 100 µM was 89.6%.
The like results for `N#Cc1ccc(N(Cc2n[nH]c3c2COCC3)C(=O)Nc2ccc(F)c(Cl)c2)cn1` [Example 125, 3-(3-chloro-4-fluorophenyl)-1-(6-cyanopyridin-3-yl)-1-((1,4,6,7-tetrahydropyrano[4,3-c]pyrazol-3-yl)methyl)urea] were, in that order, 230 nM, more than 100000 nM and 109%.
The like results for `COc1ncc(N(Cc2n[nH]c(C(F)F)c2Br)C(=O)Nc2ccc(F)c(C(F)F)c2)cn1` [Example 197, 1-((4-bromo-5-(difluoromethyl)-1H-pyrazol-3-yl)methyl)-3-(3-(difluoromethyl)-4-fluorophenyl)-1-(2-methoxypyrimidin-5-yl)urea] were, in that order, 19 nM, 79100 nM and 11.5%.
In turn, `CC(=O)c1ccc(N(Cc2n[nH]c3c2CCCO3)C(=O)Nc2ccc(F)c(Cl)c2)cn1` [Example 20, 1-(6-acetylpyridin-3-yl)-3-(3-chloro-4-fluorophenyl)-1-((1,4,5,6-tetrahydropyrano[2,3-c]pyrazol-3-yl)methyl)urea] showed an IC50 in data set [1] of more than 1100 nM. The molecule further came in with a CC50 at 65 h in data set [2] of more than 100000 nM.
The like results for `C=C(C)c1c(CN(C(=O)Nc2ccc(F)c(Cl)c2)c2cnc(OC)nc2)n[nH]c1C(F)F` [Example 93, 3-(3-chloro-4-fluorophenyl)-1-((5-(difluoromethyl)-4-(prop-1-en-2-yl)-1H-pyrazol-3-yl)methyl)-1-(2-methoxypyrimidin-5-yl)urea] were, in that order, 320 nM and more than 100000 nM.
The molecule `COc1ccc(N(Cc2n[nH]c3c2COCC3)C(=O)Nc2ccc(F)c(Cl)c2)cn1` [Example 55, 3-(3-chloro-4-fluorophenyl)-1-(6-methoxypyridin-3-yl)-1-((1,4,6,7-tetrahydropyrano[4,3-c]pyrazol-3-yl)methyl)urea] had an IC50 in data set [1] of 17 nM. Also, in data set [2], the CC50 at 65 h was more than 100000 nM and the viability at 65 h, 100 µM turned out to be 102%.
The like results for `COC12CC(N(Cc3cc(C(F)(F)F)[nH]n3)C(=O)Nc3ccc(F)c(C(F)F)c3)(C1)C2` [Example 213, 3-(3-(difluoromethyl)-4-fluorophenyl)-1-(3-methoxybicyclo[1.1.1]pentan-1-yl)-1-((5-(trifluoromethyl)-1H-pyrazol-3-yl)methyl)urea] were, in that order, 16 nM, more than 100000 nM and 63.1%.
`CS(=O)(=O)Nc1ccc(N(Cc2n[nH]c3c2CCOC3)C(=O)Nc2ccc(F)c(Cl)c2)cc1` [Example 16, N-(4-(3-(3-chloro-4-fluorophenyl)-1-((1,4,5,7-tetrahydropyrano[3,4-c]pyrazol-3-yl)methyl)ureido)phenyl)methanesulfonamide]: the IC50 in data set [1] is more than 1100 nM. In data set [2], this molecule returned a CC50 at 65 h of 97600 nM.
